Experimental data: publication PMC6471062, “Suppression of the Ubiquitin Pathway by Small Molecule Binding to Ubiquitin Enhances Doxorubicin Sensitivity of the Cancer Cells” (Molecules, 2019)
Where two headings read alike, the source gives them in different places. Each block holds one compound with its values, some of them ahead of it.

Columns and labels:
[1] = molecular target: ubiquitin (Homo sapiens, UniProt P0CG47); experiment: Intrinsic fluorescence quenching assay of ubiquitin; conditions: 50 µM ubiquitin, 0–500 µM compound, ex 274 nm / em 305 nm; read-out: Kd, dissociation constant upon binding to ubiquitin
Description: Intrinsic fluorescence quenching assays were performed as described previously. Briefly, intrinsic fluorescence quenching of ubiquitin by indicated compounds was observed by measuring the excitation and emission wavelength at 274 nm and 305 nm respectively of the mixture of 50 µM purified ubiquitin and 0–500 µM compound. Data were fitted to nonlinear regression curves with the equation described previously. F = −∆ε·[PC] + Fo(3) b = (Po + Co + Kd)(4) c = Po·Co(5) [PC] = [b − (b^2 − 4·c)^1/2]/2(6) where Fo and F are the normalized fluorescence intensity of the mixture of ubiquitin without the compound and with different concentrations of the compound, respectively. ∆ε is a difference in the extinction coefficient of the compound between their free and complex forms. [PC] is the concentration of protein/compound complex. Po and Co are the added concentration of ubiquitin and the compound, respectively in each experiment. Kd is the dissociation constant.

[2] = molecular target: USP5 (Homo sapiens); experiment: Deubiquitination assay, cleavage of GST-Ubiquitin-HA by USP5 (SDS-PAGE band intensity); format: biochemical
Chain of USP5 (Homo sapiens) (P45974 2-858, other chains not shown): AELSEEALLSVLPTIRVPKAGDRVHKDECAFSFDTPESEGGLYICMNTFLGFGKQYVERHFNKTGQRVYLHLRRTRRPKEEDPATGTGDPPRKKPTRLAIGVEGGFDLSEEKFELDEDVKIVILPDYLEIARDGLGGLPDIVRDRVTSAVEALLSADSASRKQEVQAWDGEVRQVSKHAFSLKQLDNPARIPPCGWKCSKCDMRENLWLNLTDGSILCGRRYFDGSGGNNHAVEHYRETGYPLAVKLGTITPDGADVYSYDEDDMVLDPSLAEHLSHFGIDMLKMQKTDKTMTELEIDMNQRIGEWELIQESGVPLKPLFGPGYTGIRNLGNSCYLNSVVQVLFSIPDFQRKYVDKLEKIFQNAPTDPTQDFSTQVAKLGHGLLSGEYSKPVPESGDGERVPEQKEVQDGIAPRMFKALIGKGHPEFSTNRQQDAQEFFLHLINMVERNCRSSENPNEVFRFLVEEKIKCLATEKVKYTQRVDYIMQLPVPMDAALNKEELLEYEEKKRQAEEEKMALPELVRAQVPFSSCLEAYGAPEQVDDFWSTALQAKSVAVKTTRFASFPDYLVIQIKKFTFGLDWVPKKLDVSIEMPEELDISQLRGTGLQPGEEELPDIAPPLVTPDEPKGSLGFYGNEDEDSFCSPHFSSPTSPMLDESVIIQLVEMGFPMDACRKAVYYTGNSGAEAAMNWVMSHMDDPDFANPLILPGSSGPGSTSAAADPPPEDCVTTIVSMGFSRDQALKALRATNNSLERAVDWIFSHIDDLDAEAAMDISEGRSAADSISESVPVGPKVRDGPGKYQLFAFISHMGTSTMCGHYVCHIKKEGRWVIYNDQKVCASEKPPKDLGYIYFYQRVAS
Description: (§1) For in vitro ubiquitination assays, 500 µM of ubiquitin was used for each ubiquitination reaction as described previously, in the absence or presence of 50–500 µM of CR. […] The generation of GST-ubiquitin from GST-Ubiquitin-HA as the mobility shifts were analyzed on 12.5% SDS-PAGE visualized by Coomassie blue staining. Band intensities were quantified by ImageJ [55] and used to generate the IC50 curves (log inhibitor vs. normalized response with variable slope) by GraphPad Prism version 6.0 for Windows (GraphPad Software, San Diego, CA, USA, www.graphpad.com).

[3] = molecular target: UCHL1 (Homo sapiens); experiment: Deubiquitination assay, cleavage of GST-Ubiquitin-HA by UCHL1 (SDS-PAGE band intensity); format: biochemical
Chain of UCHL1 (Homo sapiens) (P09936 whole entry, other chains not shown): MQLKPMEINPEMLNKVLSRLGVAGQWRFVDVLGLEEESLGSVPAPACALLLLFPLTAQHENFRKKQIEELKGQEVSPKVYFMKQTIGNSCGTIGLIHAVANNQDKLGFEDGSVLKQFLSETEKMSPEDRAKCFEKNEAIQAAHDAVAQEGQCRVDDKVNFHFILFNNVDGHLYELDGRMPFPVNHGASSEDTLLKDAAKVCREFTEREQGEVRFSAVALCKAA
Description: as §1

[4] = system: H1299 cells; experiment: Dox-induced K48- and K63-polyubiquitination in cells (immunofluorescence staining, Western blot); format: cell-based; conditions: H1299, non-pretreated, 5 µM Dox
Description: Figure 6 CR inhibits Dox-induced ubiquitination in the cells. (a) Immunofluorescence staining of H1299 cells treated with or without 5 (+) and 10 (++) μM CR for 12 h followed by addition of Dox to a final concentration of 5 μM, with incubation for 12 h. The cells were subjected to immunofluorescence staining using the antibodies against K48 (αK48) and K63 polyubiquitins (αK63). (b) K48 or K63 polyubiquitin level in Figure 6a was quantified by fluorescence signal. At least seven random regions acquired in confocal images were sampled and normalized against DAPI intensity for quantification. (c) Immunoblots of samples in Figure 6a using the indicated antibodies. […] Statistical significance was calculated by the Student’s t-test (* p < 0.05, ** p < 0.01, *** p < 0.001).
Cells were seeded in the SPL 4 wells cell culture chamber slide 24 h before experiment. […] Subsequently, cells were incubated with primary antibody at 1/200 dilution in blocking buffer overnight and then washed with blocking buffer five times (5 min each) before incubation with fluorescence-conjugated secondary antibody at 1/200 dilution in blocking buffer for 1 h. […] Images acquired in confocal imaging were subjected to fluorescence intensity analysis using ImageJ [55]. Fluorescence signal representing a particular ubiquitin chain level was analyzed and normalized with the intensity of DAPI. […]

[5] = system: H1299 cells; experiment: Dox-induced cell death, colorimetric cell viability, H1299; format: cell-based
Description: (§2) Figure 7 CR enhances Dox sensitivity of cancer cells. (a,b) Enhancement of Dox-induced apoptosis of cancer cells by CR treatment. Dox–induced apoptosis of H1299 (a) and HCT116 (b) was quantified by colorimetric cell viability after treating 10 µM CR for 12 h followed by 12h treatment of Dox (0.0–5.0 µM). […] Caspase activity was quantified by luminogenic caspase activity assay. […] All error bars represent the standard deviation from at least four independent experiments. Statistical significance was calculated by the Student’s t-test (** p < 0.01, *** p < 0.001).
(§3) Cell viability assays were performed as described previously. For the caspase assays, the media were removed, and cells were lysed in 200 µL lysis buffer containing 50 µL Caspase Glo 3/7 solution and incubated for 15 min. Results were observed by measuring the luminescence signal using KOMM-Nr (Berthold Technologies, Bad Wildbad, Germany) and normalized with the total protein concentration measured by the Bradford assay. Data were analyzed using GraphPad Prism version 6.0 for Windows with two tail t-test for statistical data analysis […]
(§4) Figure S8. NSC697923 enhances Dox sensitivity of cancer cells. (a, b) Effect of NSC697923 to cancer cells’ viability in Dox treatment . Dox–induced cell death of H1299 ( a) and HCT116 ( b) was quantified by colorimetric cell viability assay after treating 5 µM NSC697923 for 12 h followed by 12h treatment of Dox (0.0 […]
(§5) NSC697923. Caspase activity was quantified by luminogenic caspase activity assay. All error bars represent the standard deviation from at least 4 independent experiments. *, P<0.05; **, P<0.01; ***, P<0.001.

[6] = system: HCT116 cells; experiment: Dox-induced cell death, colorimetric cell viability, HCT116; format: cell-based; conditions: for Effect on Dox-induced cell death, HCT116: 10 µM CR or 5 µM NSC697923 12 h, then Dox 1.25–5.0 μM 12 h
Description: as §2
as §3, with “assay.” for “assay. Data were analyzed using GraphPad Prism version 6.0 for Windows with two tail t-test for statistical data analysis”
as §4, §5

[7] = design: method as in PMID 27613091; conditions: previous study ref 35; cited from earlier work
[8] = system: H1299 cells; experiment: Cytotoxicity, cell viability assay; format: cell-based; conditions: determined by cytotoxicity assays
Description: as §3
Figure S7. Cytotoxicity of CR to cancer cells. H1299 cells were cultured in 96 -well plates. CR was added to final concentrations of 0.0 – 50.0 µM, and the cells were incubated for 24 h followed by cell viability assay. All error bars represent the standard deviation from at least 4 independent experiments. Statistical comparisons between groups were determined by Student’s t -test. If p -values are less than 0.05, they are statistically significant . NS, not […]
(1 picture or pasted object on this page, not shown here)

[9] = system: H1299 cells; experiment: Luminogenic caspase activity assay (Caspase Glo 3/7), H1299; format: cell-based; conditions: 10 µM CR or 5 µM NSC697923 with Dox
Description: as §2
as §3, with “assay.” for “assay. Data were analyzed using GraphPad Prism version 6.0 for Windows with two tail t-test for statistical data analysis”
as §4
(§6) NSC697923. Caspase activity was quantified by luminogenic caspase activity assay. […]

[10] = system: HCT116 cells; experiment: Luminogenic caspase activity assay (Caspase Glo 3/7), HCT116; format: cell-based; conditions: 10 µM CR or 5 µM NSC697923 with Dox
Description: as §2
as §3, with “assay.” for “assay. Data were analyzed using GraphPad Prism version 6.0 for Windows with two tail t-test for statistical data analysis”
as §4, §6

[11] = 0.6 µM USP5, 5 µM GST-Ubiquitin-HA, 0–45 µM compound, read-out: IC50 USP5 (DUB activity)
[12] = 8 µM UCHL1, 5 µM GST-Ubiquitin-HA, 0–45 µM compound, read-out: IC50 UCHL1 (DUB activity)

Kd [1]: 20 ± 0.835 µM
IC50 [2, 11]: 13.7 ± 2.74 µM
IC50 [3, 12]: 33.7 ± 4.05 µM
SMILES: Nc1ccc2c(O)c(N=Nc3ccc(N=Nc4ccc(N=Nc5cc(S(=O)(=O)O)c6cccc(S(=O)(=O)O)c6c5)c5ccccc45)c4ccc(S(=O)(=O)O)cc34)c(S(=O)(=O)O)cc2c1 [DB71, Direct blue 71]

Kd [1]: 60.3 ± 2.3 µM
IC50 [2, 11]: 32.5 ± 5 µM
SMILES: COc1cc(-c2ccc(/N=N/c3c(S(=O)(=O)O)cc4cc(S(=O)(=O)O)cc(N)c4c3O)c(OC)c2)ccc1/N=N/c1c(S(=O)(=O)O)cc2cc(S(=O)(=O)O)cc(N)c2c1O [DB15, Direct blue 15]

The remaining lines, values behind:

SMILES: Cc1cc(-c2ccc(/N=N/c3c(S(=O)(=O)O)cc4cc(S(=O)(=O)O)cc(N)c4c3O)c(C)c2)ccc1/N=N/c1c(S(=O)(=O)O)cc2cc(S(=O)(=O)O)cc(N)c2c1O [TB, Trypan blue]
Kd [1]: 78.1 ± 4.02 µM
IC50 [2, 11]: > 45 µM

SMILES: COc1cccc2c1C(=O)c1c(O)c3c(c(O)c1C2=O)C[C@@](O)(C(=O)CO)C[C@@H]3O[C@H]1C[C@H](N)[C@H](O)[C@H](C)O1 [Dox, doxorubicin]
K48- and K63-polyubiquitination upon Dox alone [4]: enhanced K48- and K63-polyubiquitination
Dox-induced cell death, Dox alone, H1299 ([5]; Dox 1.25 to 5.0 μM, 12 h): proportional to the Dox concentration
Dox-induced cell death, Dox alone, HCT116 ([6]; Dox 1.25 to 5.0 μM, 12 h): proportional to the Dox concentration

SMILES: COc1cc(-c2ccc(/N=N/c3ccc4c(S(=O)(=O)O)cc(S(=O)(=O)O)c(N)c4c3O)c(OC)c2)ccc1/N=N/c1ccc2c(S(=O)(=O)O)cc(S(=O)(=O)O)c(N)c2c1O [CSB6B, Chicago Sky Blue 6B]
Kd [1]: 12 ± 0.678 µM
IC50 [2]: 6.52 ± 0.786 µM
IC50 [3]: 11.2 ± 1.37 µM
Cell membrane penetration [7]: not able to penetrate the cell membrane

SMILES: Cc1cc(-c2ccc(/N=N/c3ccc4c(S(=O)(=O)O)cc(S(=O)(=O)O)c(N)c4c3O)c(C)c2)ccc1/N=N/c1ccc2c(S(=O)(=O)O)cc(S(=O)(=O)O)c(N)c2c1O [EB, Evans blue]
Kd [1]: 13 ± 0.689 µM
IC50 [2, 11]: 9.33 ± 1.58 µM
IC50 [3, 12]: 18.1 ± 2.09 µM

SMILES: Cc1ccc(S(=O)(=O)c2ccc([N+](=O)[O-])o2)cc1 [NSC697923]
None-toxicity concentration [8]: 5 µM
Effect on Dox-induced cell death, H1299 ([5]; 10 µM CR or 5 µM NSC697923 12 h, then Dox 1.25–5.0 μM 12 h): significantly enhanced Dox-induced cell death
Effect on Dox-induced cell death, HCT116 [6]: only a synergistic effect at low concentrations of Dox
Effect on Dox-induced cell death, HCT116 ([6]; listed as NSC967923): significantly enhanced Dox-induced cell death
Effect on caspase activity of Dox-treated H1299 cells [9]: Enhanced caspase activity
Effect on caspase activity of Dox-treated HCT116 cells [10]: Enhanced caspase activity
